Structures can show the parent of a compound that is named as a salt. Where two headings read alike, the source gives them in different places.
Tests used:
topoisomerase II = topoisomerase II (Cricetulus griseus, UniProt P41515); assay: Test of inhibition of the activity of topoisomerase II; assay type: biochemical; settings: for IC50: in vitro, read-out: Test of inhibition of the activity of topoisomerase II (ED50 M)
Description: Measurement of the inhibition of the activity of topoisomerase II is made according to the procedure described in the literature: "Nuclear topoisomerase II levels correlate with the sensitivity of mammalian cells to intercalating Agents and Epipodophyllotoxins", I. D. Hickson et al., J. Biol. Chem. (1988), 263, 17724.

[1] = background, known drugs; cited from earlier work
[2] = Measurement of the water-solubility of the salts; assay type: physicochemical; settings: read-out: % solubility (weight/volume) expressed in g per 100 ml of water
Description: The amorphous or crystalline salts are obtained by simple freeze-drying. [drawing 4] Measurement of the Water-Solubility
The solubility in water of the salts of the phosphate or carboxylate derivatives by addition of physiologically acceptable organic amines such as, for example, N-methylglucamine, triethanolamine or lysine, or the salts with inorganic cations such as sodium, obtained in lyophilized form or by extemporaneous addition of a base to the free acid compound, gave the following results by way of example.

topoisomerase II, sequence (P41515 whole entry): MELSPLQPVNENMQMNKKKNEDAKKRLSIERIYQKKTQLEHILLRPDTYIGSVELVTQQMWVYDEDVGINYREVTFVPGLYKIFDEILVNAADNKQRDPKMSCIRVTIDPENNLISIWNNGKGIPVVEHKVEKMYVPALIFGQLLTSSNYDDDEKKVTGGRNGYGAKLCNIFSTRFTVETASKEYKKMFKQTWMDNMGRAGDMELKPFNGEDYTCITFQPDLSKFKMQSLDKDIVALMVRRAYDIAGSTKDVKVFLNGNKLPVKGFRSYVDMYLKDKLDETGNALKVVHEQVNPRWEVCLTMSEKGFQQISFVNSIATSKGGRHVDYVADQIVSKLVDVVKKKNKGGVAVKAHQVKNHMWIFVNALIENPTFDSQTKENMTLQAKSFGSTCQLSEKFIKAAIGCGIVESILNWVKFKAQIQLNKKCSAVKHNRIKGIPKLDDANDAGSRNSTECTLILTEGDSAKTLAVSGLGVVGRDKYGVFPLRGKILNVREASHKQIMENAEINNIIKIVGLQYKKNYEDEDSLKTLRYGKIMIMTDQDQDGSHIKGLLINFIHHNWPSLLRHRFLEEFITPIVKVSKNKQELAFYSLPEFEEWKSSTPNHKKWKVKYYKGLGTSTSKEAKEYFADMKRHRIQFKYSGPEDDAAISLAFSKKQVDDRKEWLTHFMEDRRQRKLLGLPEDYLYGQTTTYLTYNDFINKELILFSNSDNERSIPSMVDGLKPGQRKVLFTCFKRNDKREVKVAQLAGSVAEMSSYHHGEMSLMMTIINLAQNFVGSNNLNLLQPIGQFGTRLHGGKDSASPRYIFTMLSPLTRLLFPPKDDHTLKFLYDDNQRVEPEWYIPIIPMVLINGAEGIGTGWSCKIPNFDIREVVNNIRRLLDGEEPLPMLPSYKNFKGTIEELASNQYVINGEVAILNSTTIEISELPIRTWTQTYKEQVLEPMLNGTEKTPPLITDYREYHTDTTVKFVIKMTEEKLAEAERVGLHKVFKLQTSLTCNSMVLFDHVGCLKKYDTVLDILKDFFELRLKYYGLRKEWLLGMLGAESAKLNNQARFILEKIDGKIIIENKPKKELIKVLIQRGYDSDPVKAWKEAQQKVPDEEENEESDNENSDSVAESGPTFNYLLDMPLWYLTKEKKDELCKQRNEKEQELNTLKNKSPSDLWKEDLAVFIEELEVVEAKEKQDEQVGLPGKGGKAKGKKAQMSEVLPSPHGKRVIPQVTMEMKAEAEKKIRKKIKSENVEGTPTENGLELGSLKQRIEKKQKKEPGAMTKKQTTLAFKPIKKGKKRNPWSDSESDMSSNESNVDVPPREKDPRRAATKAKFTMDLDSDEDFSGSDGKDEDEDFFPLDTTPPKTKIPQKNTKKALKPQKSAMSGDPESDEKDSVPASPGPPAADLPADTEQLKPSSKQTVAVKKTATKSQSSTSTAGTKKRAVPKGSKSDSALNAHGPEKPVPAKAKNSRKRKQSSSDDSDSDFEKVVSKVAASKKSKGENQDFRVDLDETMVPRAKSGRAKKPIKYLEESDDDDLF

Compound	IC50 (topoisomerase II) [µM]	solubility ([2]; N-methylglucamine salt) [mg/mL]	other results
COc1cc([C@@H]2c3cc4c(cc3[C@@H](O[C@@H]3O[C@@H]5CO[C@@H](C)O[C@H]5[C@H](O)[C@H]3O)[C@H]3COC(=O)[C@H]23)OCO4)cc(OC)c1OP(=O)(O)O [Etopofos, reference compound]	> 100		in vitro activity compared with etoposide (in words) (topoisomerase II; relative to etoposide): loss of in vitro activity
COc1cc([C@@H]2c3cc4c(cc3[C@@H](O[C@@H]3O[C@@H]5CO[C@@H](C)O[C@H]5[C@H](O)[C@H]3O)[C@H]3COC(=O)[C@H]23)OCO4)cc(OC)c1O [Etoposide, reference compound]	56		water-solubility (in words) [1]: lack of water-solubility
COc1cc([C@@H]2c3cc4c(cc3[C@@H](O[C@@H]3O[C@@H]5CO[C@@H](C)O[C@H]5[C@H](OC(=O)COc5ccccc5)[C@H]3OC(=O)COc3ccccc3)[C@H]3COC(=O)[C@H]23)OCO4)cc(OC)c1OP(=O)(O)O [Example 1, 4'-demethyl-4-O-(2,3-bisphenoxyacetyl-4,6-ethylidene-β-D-glucosyl)epipodophyllotoxin-4'-deoxy-4'-phosphate]	5.6	5	
COc1cc([C@@H]2c3cc4c(cc3[C@@H](O[C@@H]3O[C@@H]5CO[C@@H](C)O[C@H]5[C@H](OC(=O)COc5ccc(OC(F)(F)F)cc5)[C@H]3OC(=O)COc3ccc(OC(F)(F)F)cc3)[C@H]3COC(=O)[C@H]23)OCO4)cc(OC)c1OP(=O)(O)O [Example 3, 4'-demethyl-4-O-(2,3-bis-(4-trifluoromethoxyphenoxyacetyl)-4,6-ethylidene-β-D-gluocosyl)epipodophyllotoxin-4'-deoxy-4'-phosphate, bis(N-methylglucamine) Salt]	0.32	50	
COc1cc([C@@H]2c3cc4c(cc3[C@@H](O[C@@H]3O[C@@H]5CO[C@@H](C)O[C@H]5[C@H](OC(=O)COc5ccc(F)cc5)[C@H]3OC(=O)COc3ccc(F)cc3)[C@H]3COC(=O)[C@H]23)OCO4)cc(OC)c1OP(=O)(O)O [Example 4, 4'-demethyl-4-O-(2,3-bis(4-fluorophenoxyacetyl)-4,6-ethylidene-β-D-glucosyl)epipodophyllotoxin-4'-deoxy-4'-phosphate bis(N-methylglucamine) Salt]	1.8	100	
COc1cc([C@@H]2c3cc4c(cc3[C@@H](O[C@@H]3O[C@@H]5CO[C@@H](C)O[C@H]5[C@H](OC(=O)COc5ccc(OP(=O)(O)O)cc5)[C@H]3OC(=O)COc3ccc(OP(=O)(O)O)cc3)[C@H]3COC(=O)[C@H]23)OCO4)cc(OC)c1OC(=O)COc1ccc(OP(=O)(O)O)cc1 [Example 6, 4'-(4-phosphonooxyphenoxyacetyl)-4'-demethyl-4-O-(2,3-bis(4-phosphonooxyphenoxyacetyl)-4,6-ethylidene-β-D-glucosyl)epipodophyllotoxin]	0.32	100	solubility ([2]; Sodium salt): 10 mg/mL; solubility ([2]; lysine salt): 200 mg/mL; solubility ([2]; triethanolamine salt): 200 mg/mL
COc1cc([C@@H]2c3cc4c(cc3[C@@H](O[C@@H]3O[C@@H]5CO[C@@H](C)O[C@H]5[C@H](OC(=O)COc5ccc(OP(=O)(O)O)cc5)[C@H]3OC(=O)COc3ccc(OP(=O)(O)O)cc3)[C@H]3COC(=O)[C@H]23)OCO4)cc(OC)c1OP(=O)(O)O [Example 7, 4'-demethyl-4-O-(2,3-bis(4-phosphonooxyphenoxyacetyl)-4,6-ethylidene-β-D-glucosyl)epipodophyllotoxin-4'-deoxy-4'-phosphate]	56	100	
COc1cc([C@@H]2c3cc4c(cc3[C@@H](O[C@@H]3O[C@@H]5CO[C@@H](C)O[C@H]5[C@H](OC(=O)COc5ccc(O)cc5)[C@H]3OC(=O)COc3ccc(O)cc3)[C@H]3COC(=O)[C@H]23)OCO4)cc(OC)c1OC(=O)N(CC(=O)O)CC(=O)O [Example 11, 4'-(dicarboxymethylaminocarbonyl)-4'-demethyl-4-O-(2,3-bis(p-hydroxyphenoxyacetyl)-4,6-ethylidene-β-D-glucosyl)epipodophyllotoxin]	5.6	100	
COc1cc([C@@H]2c3cc4c(cc3[C@@H](O[C@@H]3O[C@@H]5CO[C@@H](C)O[C@H]5[C@H](OC(=O)CS(=O)(=O)c5ccccc5)[C@H]3OC(=O)CS(=O)(=O)c3ccccc3)[C@H]3COC(=O)[C@H]23)OCO4)cc(OC)c1OP(=O)(O)O [Example 21, 4'-demethyl-4'-deoxy-4'-phosphate-4-O-(2,3-bis(phenylsulfonylacetyl)-4,6-ethylidene-β-D-glucosyl)epipodophyllotoxin]	5.6	100	
COc1cc([C@@H]2c3cc4c(cc3[C@@H](O[C@@H]3O[C@@H]5CO[C@@H](C)O[C@H]5[C@H](OC(=O)COc5ccc(OCC(=O)O)cc5)[C@H]3OC(=O)COc3ccc(OCC(=O)O)cc3)[C@H]3COC(=O)[C@H]23)OCO4)cc(OC)c1OC(=O)COc1ccc(OCC(=O)O)cc1 [Example 26, 4'-demethyl-4'-carboxymethoxyphenoxyacetyl-4-O-(2,3-bis(4-carboxymethoxyphenoxyacetyl)-4,6-ethylidene-β-D-glucosyl)epipodophyllotoxin]	5.6	100	
COc1cc([C@@H]2c3cc4c(cc3[C@@H](O[C@@H]3O[C@@H]5CO[C@@H](C)O[C@H]5[C@H](OC(=O)COc5ccc(Cl)cc5)[C@H]3OC(=O)COc3ccc(Cl)cc3)[C@H]3COC(=O)[C@H]23)OCO4)cc(OC)c1OP(=O)(O)O [Example 27, 4'-demethyl-4'-deoxy-4'-phosphate-4-O-(2,3-bis(4-chlorophenoxyacetyl)-4,6-ethylidene-β-D-glucosyl)epipodophyllotoxin]	0.76	5	
COc1cc([C@@H]2c3cc4c(cc3[C@@H](O[C@@H]3O[C@@H]5CO[C@@H](c6cccs6)O[C@H]5[C@H](O)[C@H]3O)[C@H]3COC(=O)[C@H]23)OCO4)cc(OC)c1O [teniposide]			water-solubility (in words) [1]: lack of water-solubility

— patent US6107284A, “Water-soluble derivatives of epipodophyllotoxin, process for their preparation, their use as medicinal products and their intended use in anti-cancer treatments” (Pierre Fabre Medicament, priority 1994, dated 2000)
